Assay results reported in US20260271925A1, “DYSREGULATION OF PLANKTONIC BACTERIAL METABOLISM” (Lixa Limited, priority 2023, published 2026).
In brackets after ≈: the same amount, converted by molar mass. Each block holds one molecule with its values, some of them ahead of it.

Legend:
K. pneumoniae WACC 790 = experiment: Resazurin reduction for the evaluation of metabolic activity (Example 2, FIG. 8); assay type: cell-based, Klebsiella pneumoniae
Procedure: (§1) Bacterial strains were maintained as suspensions in 20% (v/v) glycerol/Brain-Heart Infusion at −80° C.
Aerobic respiration was measured in the presence or absence of D-Lactic acid and the presence or absence of companion antibiotics either following incubation and visual recording of the MIC, or in a separate study. For evaluation after completion of MIC determination, the entire volume of the MIC well (100 μl) was mixed by pipetting up and down, then transferred to the equivalent well of a fluorescence-absorbance suitable 96-well plate. Alternatively, cultures were pipetted together as above and incubated overnight at 37° C. in the absence of any antimicrobial compounds. […] After incubation regimes were completed for both procedures, resazurin reduction was evaluated by adding 10 μl of a 0.02% resazurin solution to every well, and incubating the plates with gentle shaking (40 rpm) for a further 90 minutes at 37° C. […]
Following incubation, the 96-well trays were read on a fluorescence-absorbance spectrophotometer, using an excitation frequency of 565 nm and emission frequency of 590 nm. […]

[1] = tested on: P. aeruginosa strain WACC91; experiment: Resazurin reduction of planktonic cultures in M63 (glucose), D- versus L-Lactic acid (Example 3); assay type: cell-based, Pseudomonas aeruginosa; details: resorufin fluorescence; compared to vehicle only treatment; M63 (glucose); 24 h
Procedure: . Viable cells reduce the blue resazurin dye to the pink, fluorescent resorufin form. Following incubation fluorescence was quantified by excitation wavelength of 540 nm and an emission wavelength of 590 nm using Enspire microplate reader.
P. aeruginosa strain WACC91 was maintained as a suspension in 20% (v/v) glycerol/Brain-Heart Infusion at −80° C. For use, a loop-full of ice was scraped from the stock and streaked for single colonies on LB media containing 1.8% agar and incubated overnight at 37° C. Isolated colonies were looped into 5 mL of LB broth and incubated at 37° C. with shaking until turbidity was greater than that of a 1.0 McFarland Standard (3-4 h).
The broth culture was diluted in M63 minimal media containing 0.2% (w/v) glucose as the sole carbon source to a turbidity equal to a 1.0 McFarland standard using a spectrophotometer at a wavelength of 595 nm. This culture was then diluted 1:100 in M63 (glucose) and 100 μL together with an additional 50 μL was transferred to each well of a 96 well microtitre tray and incubated overnight at 37° C., 5% CO2. D-Lactic acid, L-Lactic acid, or vehicle only (sterile H2O) was then applied by adding 50 μL of appropriate stock solutions diluted in M63 (glucose) and incubating for a further 24 hours at 37° C., 5% CO2. Culture metabolic activity was then determined using resazurin reduction as described above in Example 1.

[2] = tested on: Pseudomonas aeruginosa clinical isolates from patients with cystic fibrosis; experiment: Resazurin staining of planktonic cultures, metabolic activity (Example 1); assay type: cell-based; details: resorufin fluorescence; 24 clinical isolates; 24 h D-Lactic acid treatment
Procedure: Clinical isolates of Pseudomonas aeruginosa collected from patients with cystic fibrosis were phenotyped and stored as 50% glycerol stocks at −70° C.±2° C. Clinical isolates were thawed and streaked out on blood agar plates to grow at 37° C., 5% CO2 for 12-24 hours, or until isolated colonies were large enough to sustain further culturing could be selected. Isolated colonies were looped into 5 mL of LB broth and incubated overnight at 37° C., 5% CO2 with gentle shaking to achieve stationary phase (B0).
B0 cultures were diluted 1:1000 in Pseudomonas minimal medium (herein referred to as PMM) to achieve approximately […], then 150 μL of each diluted culture was transferred to wells of a 96 well mitrotitre tray and incubated overnight at 37° C., 5% CO2. D-Lactic acid was then applied by adding 50 μL of appropriately stock solutions diluted in PMM (or vehicle-only in the case of control wells) and incubating for a further 24 hours at 37° C., 5% CO2. 20 μL culture supernatant was then transferred to wells containing 180 μL fresh PMM, culture density determined by measuring the absorbance at 595 nm (using a ThermoFisher Multiskan FC plate reader). […]
Viable cells reduce the blue resazurin dye to the pink, fluorescent resorufin form. Following incubation fluorescence was quantified by excitation wavelength of 540 nm and an emission wavelength of 590 nm using Enspire microplate reader. […]

[3] = tested on: bioluminescent col^R E. coli Xen14; experiment: Murine peritoneal-sepsis model, CD1 male mice challenged IP (Example 6); assay type: in vivo, Escherichia coli; details: for survival of infected mice: up to 72 h post-infection, 8 mice per group, Sodium D-Lactate 1000 mg/kg single oral dose, colistin 1 mg/kg IP at 0, 4, 8 and 12 h
Procedure: Bioluminescent col^R E. coli Xen14 was streaked onto a 5% sheep blood agar plate containing 30 μg/ml kanamycin and incubated overnight (o/n) at 37° C. in normal air. The plate was first checked on a Lumina XRMS Ill machine to ensure bioluminescence, then a loopful of the o/n growth was suspended into 10 mL Luria Bertani (LB) broth to A600 nm=0.05. The suspension was incubated at 37° C. for approx. 3 h until A600 nm=0.5 (equivalent to approx. 5×10^8 CFU/mL). The bacterial suspension was centrifuged at 4,000×g for 5 min, resuspended and washed twice in phosphate buffered saline (PBS, pH 7.2) resuspended again in PBS and then placed on wet ice and used for mouse infection within 10 min of preparation as described below.
Outbred Swiss male (CD1) mice, 6-7 weeks (approx. 26-33 g, 8 mice per group) obtained from the Laboratory Animal Services breeding facility of The University of Adelaide, were used in these experiments. Mice had access to food and water ad libitum. The Animal Ethics Committee of The University of Adelaide (approval number S-2022-044) reviewed and approved all animal experiments. The study was conducted in compliance with the Australian Code of Practice for the Care and Use of Animals for Scientific Purposes (8th Edition 2013) and the South Australian Animal Welfare Act 1985.
Each mouse was challenged intraperitoneally (IP) with approx. 1×10^8 CFU of the bioluminescent col^R E. coli Xen14 in 200 μL PBS containing 3% porcine stomach mucin type Ill (Sigma Aldrich) and subjected to bioluminescence imaging in both ventral and dorsal positions on the IVIS Lumina XRMS Series Ill system while under anaesthesia. […]
Aliquots of blood samples (approx. 50 μL) were taken by submandibular (facial vein) bleeding from individual mice in all groups at 4 h for bacterial enumeration. […] In all experiments, signals were collected from a defined region of interest and total flux intensities (photons/s) analysed using Living Image Software 4.7.3. Survival rates for the groups were recorded. […]

S. aureus 29213 = experiment: Minimum inhibitory concentration of metal salts by broth microdilution in Trypticase Soya broth (Example 4); assay type: cell-based, Staphylococcus aureus
Procedure: (§2) Bacterial strains were maintained as suspensions in 20% (v/v) glycerol/Brain-Heart Infusion at −80° C. For use, a loop-full of ice was scraped from the stock and streaked for single colonies on Trypticase Soya agar containing 1.8% agar and incubated overnight at 37° C.
(§3) A standard inoculum was prepared from broth culture. One to three colonies from an overnight agar culture plate were transferred to 5 ml of broth media and incubated at 37° C. with shaking (200 rpm) until turbidity was greater than that of a 0.5 McFarland Standard (overnight). All assays were performed in Trypticase Soya broth.
(§4) The broth culture was diluted in broth to a turbidity equal to a 0.5 McFarland Standard using a spectrophotometer at a wavelength of 620 nm. The 0.5 McFarland Standard was further diluted 1:100 in broth to create the standard inoculum. 50 μl of this standard inoculum was dispensed into every well in the microtitre tray, except the negative controls, where 50 μl of broth was dispensed instead.
(§5) Next, a working concentration at two times the highest target concentration for every salt (in aqueous solution) was created in broth from stock solutions. 100 μl of this working concentration was pipetted into the first well, and 50 μl of broth media into all other wells. 50 μl of the first well was pipetted out and serially diluted across all wells in the row until the final concentration in the range achieved. 50 μl from the final well was removed and discarded. This produced a concentration range where each well was double the target concentration. All agents were performed in duplicate.
(§6) 96 well trays were incubated at 37° C. for 18±2 hours.

S. aureus MRSA 510 = experiment: as above; assay type: cell-based, Staphylococcus aureus
Procedure: as §2, §3, §4, §5, §6

S. aureus MSSA 278 = experiment: Minimum inhibitory concentration by broth microdilution (Example 2); assay type: cell-based, Staphylococcus aureus; details: unit assumed
Procedure: as §1
(§7) A standard inoculum was prepared from broth culture.
as §4
as §5, with “antimicrobial” for “salt (in aqueous solution)”
as §6

S. aureus 510 (MRSA) = experiment: as above; assay type: cell-based, Staphylococcus aureus; details: unit assumed
Procedure: as §1, §7, §4
as §5, with “antimicrobial” for “salt (in aqueous solution)”
as §6

P. aeruginosa 001-11R = experiment: as above; assay type: cell-based, Pseudomonas aeruginosa
Procedure: as §2, with “rich media” for “Trypticase Soya agar”, “agar (for Pseudomonas aeruginosa or Klebsiella pneumoniae, Luria-Bertani medium; for Staphylococcus aureus or Streptococcus pneumoniae, Trypticase Soy agar)” for “agar”
A standard inoculum was prepared from broth culture. 1 to 3 colonies from an overnight agar culture plate were transferred to 5 ml of broth media and incubated at 37° C. with shaking (200 rpm) until turbidity was greater than that of a 0.5 McFarland Standard (overnight). The following broth media were used: Cation-adjusted Mueller-Hinton broth (caMHB—all strains); Roswell Park Memorial Institute medium (RPMI 1640, phenol red-free—S. aureus); Trypticase Soya Broth (TSB—S. aureus, S. pneumoniae); Todd Hewitt Broth (THB—S. pneumoniae), M63 minimal medium, supplemented with 0.2% glucose (M63—K. pneumoniae).
as §4
as §5, with “antimicrobial” for “salt (in aqueous solution)”
as §6

[4] = antibiotic + 1 mM D-Lactic acid
[5] = antibiotic + 10 mM D-Lactic acid

Molecule: O=C(O)c1cn(C2CC2)c2cc(N3CCNCC3)c(F)cc2c1=O [Ciprofloxacin]
- Relative metabolic activity, antibiotic plus D-Lactic acid versus antibiotic only (K. pneumoniae WACC 790; plus 0.1 mM D-Lactic acid): enhances metabolic activity suppression

Molecule: C[C@@H](O)C(=O)O [D-Lactic acid, (2R)-2-hydroxypropanoic acid]
- inhibition of metabolic activity [1]: > 50%
- inhibition of metabolic activity [2]: 90%

Molecule: C[C@@H](O)C(=O)[O-].[Na+] [Sodium D-Lactate]
- treatment effectiveness (protection) ([3]; single oral dose of 1000 mg/kg): not protective
- survival of infected mice [3]: succumbed to infection by 12 h post-challenge

- MIC D-Lactate salt (S. aureus 29213; metal ion as D-Lactate salt): 4 mM
- MIC (NO3)2 salt (S. aureus 29213; metal ion as nitrate salt): 8 mM
- MIC D-Lactate salt (S. aureus MRSA 510; metal ion as D-Lactate salt): 4 mM
- MIC (NO3)2 salt (S. aureus MRSA 510; metal ion as nitrate salt): 8 mM
Molecule: [Zn+2] [Zn^2+]

- MIC + 1 mM D-Lactic acid (S. aureus MSSA 278; [4]): 8 ng/mL
- MIC + 10 mM D-Lactic acid (S. aureus MSSA 278; [5]): 8 ng/mL
- MIC (S. aureus MSSA 278; antibiotic alone): 15 ng/mL (≈ 0.0182 µM)
- MIC + 1 mM D-Lactic acid (S. aureus 510 (MRSA); [4]): 8 ng/mL
- MIC + 10 mM D-Lactic acid (S. aureus 510 (MRSA); [5]): 8 ng/mL
- MIC (S. aureus 510 (MRSA); antibiotic alone): 60 ng/mL (≈ 0.0729 µM)
Molecule: CO[C@H]1/C=C/O[C@@]2(C)Oc3c(C)c(O)c4c(O)c(c(/C=N/N5CCN(C)CC5)c(O)c4c3C2=O)NC(=O)/C(C)=C\C=C\[C@H](C)[C@H](O)[C@@H](C)[C@@H](O)[C@@H](C)[C@H](OC(C)=O)[C@@H]1C [rifampicin]

Molecule: colistin
- Relative metabolic activity, antibiotic plus D-Lactic acid versus antibiotic only (K. pneumoniae WACC 790; plus 10 mM D-Lactic acid): enhances metabolic activity suppression
- MIC + 1 mM D-Lactic acid (P. aeruginosa 001-11R; [4]): 1.0
- MIC + 10 mM D-Lactic acid (P. aeruginosa 001-11R; [5]): 1.0
- MIC (P. aeruginosa 001-11R; antibiotic alone): 2.0
- survival of infected mice [3]: three out eight
